Data on 16 molecules can be found in patent US9828351B2, “Enzyme interacting agents” (MONASH UNIVERSITY, priority 2014, dated 2017).

Each structure is given as a SMILES string. Read-outs that look alike come from different tables or passages of the source. Bounds are passed on as bounds.

In one experiment the target is T1, recombinant human SphK2 (Homo sapiens, UniProt Q9NRA0).
T1 construct: purchased Johnson and Johnson
T1 sequence (Q9NRA0 1-654): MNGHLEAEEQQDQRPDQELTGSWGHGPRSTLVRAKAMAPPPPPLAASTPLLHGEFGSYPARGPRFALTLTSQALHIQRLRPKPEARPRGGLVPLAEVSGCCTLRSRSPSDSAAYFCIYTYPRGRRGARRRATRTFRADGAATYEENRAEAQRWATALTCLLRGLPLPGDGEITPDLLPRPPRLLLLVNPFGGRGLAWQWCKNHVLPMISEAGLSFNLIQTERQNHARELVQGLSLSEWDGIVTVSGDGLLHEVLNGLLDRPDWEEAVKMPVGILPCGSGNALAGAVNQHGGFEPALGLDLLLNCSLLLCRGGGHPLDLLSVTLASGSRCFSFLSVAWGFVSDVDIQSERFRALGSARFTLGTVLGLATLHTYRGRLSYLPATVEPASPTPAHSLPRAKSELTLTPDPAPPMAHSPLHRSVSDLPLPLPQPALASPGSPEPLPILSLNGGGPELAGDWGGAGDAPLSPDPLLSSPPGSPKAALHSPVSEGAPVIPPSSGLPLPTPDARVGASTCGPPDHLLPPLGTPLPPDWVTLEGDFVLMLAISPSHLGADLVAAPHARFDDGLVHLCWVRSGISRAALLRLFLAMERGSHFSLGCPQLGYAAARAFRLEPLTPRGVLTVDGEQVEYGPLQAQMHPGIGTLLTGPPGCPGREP
Put plainly: SphK2 activity assay (32P-labelled S1P production). The class given is biochemical. The conditions noted are these: 10 μM compound; % of activity compared to control (DMSO vehicle only); read-out: SphK2% actvity at 10 μm. The method, then: (§1) The SphK assays employed, measure SphK activity through the production of ^32P-labelled S1P following the addition of exogenous Sph and [γ^32P] ATP.
(§2) Activities of SphK1 and SphK2 were determined using identical assay conditions with the exception that SphK1 assays used 3 ng/assay recombinant his tagged human SphK1 (made in the lab in a baculovirus system using insect cells), while SphK2 assays used 30 ng/assay recombinant human SphK2 (purchased by Johnson and Johnson).
(§3) Compounds were dissolved in DMSO at 10 mM, the mixture was vortexed (and sonicated if necessary). Stock solutions were kept at 4° C. until used.
(§4) Aliquots were made containing 100 μM drug compound. These aliquots were then diluted in assay buffer: 100 mM tris/HCl pH 7.4, 100 mM NaCl, 1 mM sodium orthovanadate, 10 mM NaF to make up a 10 μM solution.
(§5) Recombinant enzyme was diluted in assay buffer (above) to make up a final concentration of 0.03 ng/μL (SphK1) or 0.33 ng/μL (SphK2).
(§6) 40 μL recombinant enzyme was added to an Eppendorf® Safe-Lock® microcentrifuge tube. This was followed by the addition of drug compound from prepared aliquots, before adding ATP, [γ^32P]ATP and Sph. Note: ATP stock is made up in 1M Tris pH 7.4 and 200 mM MgCl2. This allows ATP to complex with Mg and be available as a substrate.
(§7) The rest of the reaction mixture was then added to the enzyme sample (Table 1). All reactions were performed as triplicates.
(§8) Reaction mixture was prepared with sufficient volume to assay all of the required samples. To do this, each of the volumes shown was multiplied by n+1, where n is the number of samples to be assayed. Assay buffer used is made up of 100 mM tris/HCl pH 7.4, 100 mM NaCl, 1 mM sodium orthovanadate and 10 mM NaF.
(§9) The mixture was then incubated at 37° C. for 20 min (SphK1)/45 min (SphK2).
(§10) To the 100 μL assay mixture, add 270 μl of chloroform/methanol/conc. HCl (100:200:1).
(§11) 20 μL of 5 M KCl was then added to the assay mixture.
(§12) 70 μL of chloroform was added to create phase separation. The solution was vortexed to mix well.
(§13) The solution was then centrifuged for 5 min at 13,000×g to fully separate the phases.
(§14) The upper aqueous/methanol phase was separated by aspiration.
(§15) 50 μL of the remaining lower chloroform phase […] was applied onto the TLC plate by repeatedly spotting a few microliters of liquid (<5 mm diameter circle) between each sample spot with the pipette tip. The liquid was then allowed to absorb into the plate before drying with a stream of air.
(§16) The TLC plate was developed in a glass TLC developing tank with 1-butanol/ethanol/glacial acetic acid/H2O (8:2:1:2) until the mobile phase is within 1 cm of the top of the TLC plate.
(§17) The TLC plate was then exposed to a storage phosphor screen overnight. Storage phosphor screens work by capturing images produced by ionising radiation (e.g. ^32P). The phosphorimager stimulates the screen which uses lasers to convert the latent signal to light. Light is proportional to the amount of radioactivity in the sample. The image is then quantified using standard quantification software (ImageQuant™). Whatman paper with the assay mixture dilutions, was included to assist quantification of the phosphor signal.
(§18) Once the storage phosphor screen was read using the phosphorimager, S1P spots, which have an Rf of 0.7 with the mobile phase employed, were quantified.
(§19) The S1P spot intensity can be converted to the amount of phosphate transferred/min/mg protein.

The subject of experiment [1] is PC3 prostate cancer cell lines. Put plainly: Anticancer activity in PC3 cell line, CellTitre AQueous One cell viability assay. The experiment is classed as cell-based. The conditions noted are these: Homo sapiens, PC-3; concentration required to inhibit cell proliferation by 50%; 72 hours. As to the method:
Measurement of Anticancer Activity in PC3 Cell Line Assays
PC3 prostate cancer cell lines were cultured in DMEM (containing 10% fetal calf serum and penicillin-streptomycin).
Before treatment with drug compounds, cells were plated at 2,500 cells/well in 96 well plates and incubated at 37° C. with 5% CO2 in a humidified incubator for 24 hours prior. Cells were only plated in columns 3-10 and rows C—F to ensure uniform humidity and warmth across all wells. The remaining wells were filled with 100 μL of phosphate buffered saline.
Drug stock solutions (50 or 10 mM) were diluted×1000 in media to a final concentration of either 50 μM or 10 μM with a DMSO vehicle concentration of 0.1%.
Cell culture supernatants were aspirated and replaced with drug containing media. Drug treatments were performed in duplicate wells, while potential plate layout-specific variation in cell growth was accounted for by addition of a vehicle control (0.1% DMSO).
Cells were then incubated with drug compounds at 37° C. with 5% CO2 in a humidified incubator for 72 hours prior to assay.
Media was diluted with CellTitre AQueous One Solution (Promega, Australia; Cat # G3580) according to manufacturer's instructions to produce a final concentration of 317 μg/mL.
Cell culture supernatants were then aspirated from wells and replaced with 100 μL of CellTitre solution. Triplicate cell-free control wells containing only CellTitre solution were also included in each assay.
Cells were then incubated at 37° C. with 5% CO2 in a humidified incubator for 1 hour at which time absorbance was read at 490 nm with an EnVision microplate reader (Perkin Elmer, Australia).
When analysing data, background absorbance (taken from cell-free control wells) was subtracted from each reading. […] For each drug concentration the mean (±SEM) is calculated and graphed using GraphPad Prism (version 5). A sigmoidal curved is fitted to the data and used to calculate the IC50 of each compound.

Experiment [2] concerns the target T2, recombinant his tagged human SphK1 (Homo sapiens, UniProt Q9NYA1).
T2 construct: His tag; made in house; host or cells: insect cells (baculovirus system)
Put plainly: SphK1 activity assay (32P-labelled S1P production). The class given is biochemical. The settings on record: 10 μM compound; % of activity compared to control (DMSO vehicle only). The method, then:
as §1, §2, §3, §4, §5, §6, §7, §8, §9, §10, §11, §12, §13, §14, §15, §16, §17, §18, §19

Experiment [3] concerns the target T3, Dihydroceramide Desaturase-1 (Des1) (Homo sapiens, UniProt O15121).
T3 construct: These modifications included the use of parental Jurkat cells; endogenous in cells; host or cells: parental Jurkat cells
T3 sequence (O15121 1-323): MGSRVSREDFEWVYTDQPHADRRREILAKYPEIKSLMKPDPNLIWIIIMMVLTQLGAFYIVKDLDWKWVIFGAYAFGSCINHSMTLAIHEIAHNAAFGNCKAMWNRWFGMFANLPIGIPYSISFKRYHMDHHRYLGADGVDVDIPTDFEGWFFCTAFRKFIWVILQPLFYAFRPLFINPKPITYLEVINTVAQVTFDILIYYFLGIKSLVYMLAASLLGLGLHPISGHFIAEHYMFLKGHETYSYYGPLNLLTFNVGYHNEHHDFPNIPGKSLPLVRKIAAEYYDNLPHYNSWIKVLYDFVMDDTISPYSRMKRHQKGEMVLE
Put plainly: Dihydroceramide desaturase-1 (Des1) activity by HPLC in intact Jurkat cells labeled with DhCer-C6-NBD. The class given is cell-based. As to the method:
Measurement of Dihydroceramide Desaturase-1 (Des1) Activity:
These modifications included the use of parental Jurkat cells, 0.5% serum in the culture media, and cell harvesting via centrifugation at 500×g to maximise ceramide extraction. Extracted samples (50 ul) were analysed on a Waters HPLC coupled to a fluorescence detector using a 30 cm C18 reverse-phase column eluted with 1 ml/min 20% H2O and 80% acetonitrile, both with a 0.1% of trifluoroacetic acid.

Setting [4] is: intact Jurkat cells, read-out: Des 1 IC50.

T2 sequence (Q9NYA1 whole entry): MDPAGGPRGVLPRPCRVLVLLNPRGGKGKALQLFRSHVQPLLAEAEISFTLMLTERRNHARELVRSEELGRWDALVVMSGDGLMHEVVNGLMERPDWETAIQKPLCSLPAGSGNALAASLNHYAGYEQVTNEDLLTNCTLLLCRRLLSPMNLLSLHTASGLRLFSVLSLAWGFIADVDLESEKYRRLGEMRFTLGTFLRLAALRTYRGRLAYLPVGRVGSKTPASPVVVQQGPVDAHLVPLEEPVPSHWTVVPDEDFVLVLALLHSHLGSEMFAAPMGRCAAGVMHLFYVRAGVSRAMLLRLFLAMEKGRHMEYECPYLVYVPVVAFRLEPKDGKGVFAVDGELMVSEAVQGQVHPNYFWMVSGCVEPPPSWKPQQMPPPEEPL

For orientation: IC50 means the concentration that gives 50% inhibition. For the molecule `Cc1nc(-c2ccc(Nc3nnc(-c4ccc(Cl)cc4)o3)cc2)no1` [Example E-10, 5-(4-Chlorophenyl)-N-(4-(5-methyl-1,2,4-oxadiazol-3-yl)phenyl)-1,3,4-oxadiazol-2-amine], the remaining activity at 10 µM at recombinant human SphK2 lay within 50 to 80%. In experiment [1], this molecule showed an IC50 of more than 100000 nM. For the same molecule, in experiment [2], the activity at 10 µM fell in the range of 80 to 100%.
As to `Oc1ccc(Nc2noc(-c3ccc(Cl)cc3)n2)cc1` [Example E-3, 4-((5-(4-Chlorophenyl)-1,2,4-oxadiazol-3-yl)amino)phenol], in experiment [3] (setting [4]), the concentration for half-maximal inhibition (IC50) was in the range of 1000 to 10000 nM.
Regarding `Oc1ccc(Nc2nnc(-c3ccc(Cl)cc3)s2)cc1` [Example E-2, 4-((5-(4-Chlorophenyl)-1,3,4-thiadiazol-2-yl)amino)phenol], in experiment [3] (setting [4]), the IC50 was in the range of 1000 to 10000 nM.
For `Oc1ccc(Nc2nsc(-c3ccc(Cl)cc3)n2)cc1` [Example E-31, 4-((5-(4-chlorophenyl)-1,2,4-thiadiazol-3-yl)amino)phenol], the half-maximal inhibitory concentration (IC50) in experiment [3] (setting [4]) was in the range of 100 to 1000 nM.
The same measure, in the same setting: in the case of `Oc1ccc(Nc2nnc(-c3ccc(I)cc3)o2)cc1` [Example E-24, 4-((5-(4-Iodophenyl)-1,3,4-oxadiazol-2-yl)amino)phenol] it was 1000 to 10000 nM.
As to `O=C(Nc1ccc(-c2nnc(-c3ccc(Cl)cc3)o2)cc1)[C@H]1NCC[C@@H]1O` [Example E-12, (2S,3S)-2-((4-(5-(4-chlorophenyl)-1,3,4-oxadiazol-2-yl)phenyl)carbamoyl)-3-hydroxypyrrolidin-1-ium chloride], the remaining activity at 10 µM at recombinant human SphK2 lay within 20 to 50%. Besides, in experiment [1], the IC50 was more than 100000 nM. Also, in experiment [2], the activity at 10 µM lay in the range of 50 to 80%.
As to `Oc1ccc(Nc2nnc(-c3ccc(Cl)cc3)o2)cc1` [Example E-1, 5-(4-Chlorophenyl)-N-(4-hydroxyphenyl)-1,3,4-oxadiazol-2-amine], the IC50 in experiment [3] (setting [4]) was 100 to 1000 nM.
As to `Clc1ccc(-c2nnc(NCc3ccncc3)o2)cc1` [Example E-30, 5-(4-Chlorophenyl)-N-(pyridin-4-ylmethyl)-1,3,4-oxadiazol-2-amine], the remaining activity at 10 µM on recombinant human SphK2 lay in the range of 20 to 50%. The same molecule showed an IC50 in experiment [1] of more than 100000 nM. The activity at 10 µM in experiment [2] is 1 to 5%.
Consider `N/C(=N\O)c1ccc(Nc2nnc(-c3ccc(Cl)cc3)o2)cc1` [Example E-9, (Z)-4-((5-(4-Chlorophenyl)-1,3,4-oxadiazol-2-yl)amino)-N′-hydroxybenzimidamide], for which the half-maximal inhibitory concentration (IC50) in experiment [3] (setting [4]) fell in the range of 1000 to 10000 nM.
Take `N=C(N)c1ccc(Nc2nnc(-c3ccccc3)o2)cc1` [Example E-20, Amino(4-((5-phenyl-1,3,4-oxadiazol-2-yl)amino)phenyl)methaniminium chloride]: the remaining activity at 10 µM at recombinant human SphK2 lay within 20 to 50%. Besides, in experiment [1], the IC50 is more than 100000 nM. Moreover, in experiment [2], the activity at 10 µM was in the range of 80 to 100%.
Take `O=C(Nc1ccc(O)cc1)c1csc(-c2ccc(Cl)cc2)n1` [Example E-6, 2-(4-Chlorophenyl)-N-(4-hydroxyphenyl)thiazole-4-carboxamide]: the remaining activity at 10 µM on recombinant human SphK2 was in the range of 50 to 80%. For the same molecule, the half-inhibitory concentration (IC50) in experiment [1] is more than 100000 nM. Besides, in experiment [2], the activity at 10 µM lay in the range of 20 to 50%.
`N=C(N)c1ccc(-c2nnc(-c3ccccc3)o2)cc1` [Example E-17, Amino(4-(5-phenyl-1,3,4-oxadiazol-2-yl)phenyl)methaniminium chloride]: the remaining activity at 10 µM on recombinant human SphK2 lay within 80 to 100%. In addition, the IC50 in experiment [1] is more than 100000 nM. Besides, in experiment [2], the activity at 10 µM was in the range of 200 to 300%.
As for `Oc1ccc(Nc2nc(-c3ccc(Cl)cc3)no2)cc1` [Example E-4, 4-((3-(4-Chlorophenyl)-1,2,4-oxadiazol-5-yl)amino)phenol], the concentration for half-maximal inhibition (IC50) in experiment [3] (setting [4]) is 1000 to 10000 nM.
As for `Cl.N=C(N)c1ccc(Nc2nnc(-c3ccc(Cl)cc3)o2)cc1` [Example E-23, Amino(4-((5-(4-chlorophenyl)-1,3,4-oxadiazol-2-yl)amino)phenyl)methaniminium chloride], the “Des 1 IC50” value in experiment [3] (intact Jurkat cells) is “inactive”.
Molecule `Oc1ccc(Nc2nnc(-c3ccc(C(F)(F)F)cc3)o2)cc1` [Example E-26, 4-((5-(4-(Trifluoromethyl)phenyl)-1,3,4-oxadiazol-2-yl)amino)phenol] had an IC50 in experiment [3] of 100 to 1000 nM.
On to `Oc1ccc(Nc2nc(-c3ccc(Cl)cc3)ns2)cc1` [Example E-32, 4-((3-(4-chlorophenyl)-1,2,4-thiadiazol-5-yl)amino)phenol], for which the IC50 in experiment [3] (setting [4]) fell in the range of 100 to 1000 nM.
